Where a name gives a salt, the structure may show the parent alone.
Experiments:
[1] = molecular target: T1, Human adenosine A1 receptor (Homo sapiens, UniProt P30542); experiment: Adenosine A1 receptor binding experiment (3H-CCPA); settings: human A1 receptor expressed in CHOK1 membranes
T1 construct: expressed in transfected cells; host or cells: CHOK1 cells (membrane specimen)
T1 sequence (P30542 1-326): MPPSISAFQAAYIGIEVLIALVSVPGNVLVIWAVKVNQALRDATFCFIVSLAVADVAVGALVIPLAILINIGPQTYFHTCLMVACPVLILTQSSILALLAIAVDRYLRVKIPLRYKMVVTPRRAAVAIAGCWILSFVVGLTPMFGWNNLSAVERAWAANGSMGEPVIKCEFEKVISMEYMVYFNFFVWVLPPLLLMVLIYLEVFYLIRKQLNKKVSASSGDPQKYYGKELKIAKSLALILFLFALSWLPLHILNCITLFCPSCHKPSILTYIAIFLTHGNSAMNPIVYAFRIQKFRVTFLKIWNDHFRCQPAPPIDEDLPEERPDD
Description: Human adenosine A1 receptor cDNA was subjected to an over-expression in CHOK1 cells and its membrane specimen was suspended in an incubation buffer (20 mM HEPES, 10 mM MgCl2 and 100 mM NaCl; pH 7.4) to make the concentration 66.7 μg/ml. To 0.45 ml of this membrane specimen were added 0.025 ml of tritium-labeled chlorocyclopentyl adenosine (60 nM ^3H-CCPA; 30 Ci/mmol) and 0.025 ml of the compound to be tested. The solution of the compound to be tested was prepared in such a manner that, firstly, the compound was dissolved in DMSO to make 20 mM concentration and then successively diluted each 10-fold using an incubation buffer. The mixture was allowed to stand at 30° C. for 120 minutes, subjected to a quick suction on a glass fiber filter (GF/B; manufactured by Whatman) and immediately washed with 5 ml of ice-cooled 50mM Tris-HCl buffer twice. After that, the glass fiber filter was transferred to a vial bottle, a scintillator was added and the radioactivity on the filter was measured by a liquid scintillation counter. Calculation of the inhibition rate of the test compound to the receptor bond (^3H-CCPA) was carried out by the following expression and, based upon that, IC50 was calculated.
Inhibition Rate (%)=[1−{(Binding amount in the presence of drug-Non-specific binding amount)/(Total binding amount-Non-specific binding amount)}]×100
Total binding amount is a ^3H-CCPA binding radioactivity in the absence of the test compound.
Non-specific binding amount is a ^3H-CCPA binding radioactivity in the presence of 100 μM of RPIA.
Binding amount in the presence of drug is a ^3H-CCPA binding radioactivity in the presence of the test compound of various concentrations.
The inhibition constant (Ki value) in Table was calculated from Cheng-Prusoff's expression.

[2] = tested on: Hepatic cells of primary culture of rats; experiment: Suppressing action to NECA-stimulated saccharogenesis (glucose release) in primary cultured rat hepatic cells; format: cell-based; settings: 0.1 μM NECA, 1 h incubation, glucose released into medium
Description: Hepatic cells were separated by a collagenase perfusion method from liver of male rats of Wistar strain and subjected to a primary culture in a William's Medium E containing 5% of calf serum, 10^−6 M of insulin, 10^−7 M of dexamethasone and 30 ng/ml of pertussal toxin. After one day, the hepatic cells were washed with a Krebs-Ringer Bicarbonate buffer (pH 7.4 (KRB)) containing 10 mM of HEPES and 0.1% of bovine serum albumin and incubated with KRB at 37° C. After 30 minutes, 0.1 μM of NECA (N-ethylcarboxamide adenosine) and a test compound were added thereto at the same time, the mixture was incubated for additional one hour and the amount of glucose released into an incubation medium was measured.

[3] = tested on: spontaneous diabetic mice (KK-A^y/Ta Jcl); experiment: Action to hyperglycemia of spontaneous diabetic mice (KK-A^y/Ta Jcl), single oral administration; format: in vivo, mouse; settings: 5 h
Description: Animals: Five male KK-A^y/Ta Jcl mice for each group (purchased from Nippon Clair)
Preparation and Administration of Test Compound: A test compound in a dose as shown in Table 2 was suspended in a 0.5% aqueous solution of methyl cellulose and was orally administered in a dose of 10 ml/kg.
Collection of Blood Samples and Determination of Blood Sugar: Blood was collected from tail vein immediately before administration of the test compound and also five hours after the administration and blood sugar was determined.
(§1) Method: Tail vein of a mouse was injured by a razor without an anesthetization to bleed slightly. The blood (15 μl) was collected and immediately mixed with 135 μl of a 0.6 M perchloric acid. Glucose in the supernatant obtained by a centrifugal separation (at 1500 g for 10 minutes at 4° C. using a cooling centrifuge GS-6KR of Beckmann) was determined by a Glucose CII Test Wako (Wako Pure Chemicals).
The result is shown in terms of “(% ratio of the blood sugar after 5 hours from the administration to the blood sugar before the administration)±(standard error)”. The data were subjected to a one-way layout analysis of variance and then subjected to a multiple comparison of a Dunnett type. The case where p<0.05 was judged to be that a significant difference was available.
Animals: Five male KK-A^y/Ta Jcl mice for each group (introduced from Nippon Clair)
Preparation and Administration of Test Compound: A test compound in a dose shown in Table 6 was suspended in a 0.5% aqueous solution of methyl cellulose and was orally administered in a dose of 10 ml/kg.
as §1, with “vein of mouse was” for “vein of a mouse was”
The result is shown in terms of “(% ratio of the blood sugar after 5 hours from the administration to the blood sugar before the administration)±(standard error)”. The data were subjected to a one-way layout analysis of variance and then subjected to a multiple comparison of Dunnett type. The case where p<0.05 was judged that a significant difference was available.

IC50 [2]	melting point	SMILES	further results
–	–	CCn1c(=O)c2c(nc(/C=C/c3ccc(OC)c(OC)c3)n2C)n(CC)c1=O	Ki [1]: > 10000 nM
130 nM	–	CN(C)c1ccc(-n2c(-c3cccc(F)c3)nc3c(N)nc(C#CC4(O)CCCCC4)nc32)cc1 [Example 3, 1-{2-[6-Amino-9-[4-(dimetylamino)phenyl]-8-(3-fluorophenyl)-9H-2-purinyl]-1-ethynyl}-1-cyclohexanol Dihydrochloride]	–
490 nM	160 to 163 °C	CCn1c(-c2cccc(F)c2)nc2c(N)nc(C#CC3(O)CCC3)nc21.Cl [Example 8, 1-{2-[6-Amino-9-ethyl-8-(3-fluorophenyl)-9H-2-purinyl]-1-ethynyl}-1-cyclobutanol Hydrochloride]	% ratio of the blood sugar after 5 hours from the administration to the blood sugar before the administration ± standard error ([3]; Table 2-1, 10 mg/kg oral, solvent group 72.4 ± 4.4): 47.8 ± 4.8%
470 nM	–	Cn1c(-c2cccc(F)c2)nc2c(N)nc(C#CC3(O)CCCC3)nc21 [Example 19, 1-{2-[6-Amino-8-(3-fluorophenyl)-9-methyl-9H-2-purinyl]-1-ethynyl}-1-cyclopentanol Sulfate]	–
130 nM	–	Cn1c(-c2cccc(F)c2)nc2c(N)nc(C#CC3(O)CCCCC3)nc21 [Example 31, 1-{2-[6-Amino-8-(3-fluorophenyl)-9-methyl-9H-2-purinyl]1-ethynyl}-1-cyclohexanol Hydrochloride]	–
730 nM	–	Cn1c(-c2cccc(F)c2)nc2c(N)nc(C#CC(C)(C)O)nc21 [Example 64 (sulfate), Hydrochloride]	–
–	–	Cl.Cn1c(-c2cccc(F)c2)nc2c(N)nc(C#CC(C)(C)O)nc21 [Example 64, 4-[6-Amino-8-(3-fluorophenyl)-9-methyl-9H-2-purinyl]-2-methyl-3-butyn-2-ol Hydrochloride]	% ratio of the blood sugar after 5 hours from the administration to the blood sugar before the administration ± standard error ([3]; Table 2-2, 10 mg/kg oral, solvent group 67.6 ± 2.4): 42.3 ± 4.8%
430 nM	198 to 199 °C	Cl.Cn1c(-c2cccc(F)c2)nc2c(N)nc(C#CC3(O)CCC3)nc21 [Example 89, 1-{2-[6-Amino-8-(3-fluorophenyl)-9-methyl-9H-2-purinyl]-1-ethynyl}-1-cyclobutanol Hydrochloride]	% ratio of the blood sugar after 5 hours from the administration to the blood sugar before the administration ± standard error ([3]; Table 2-2, 30 mg/kg oral, solvent group 67.6 ± 2.4): 38.3 ± 4.4%
200 nM	188 to 191 °C	CCn1c(-c2cccc(F)c2)nc2c(N)nc(C#CC3(O)CCCC3)nc21.Cl [Example 133, 1-{2-[6-Amino-9-ethyl-8-(3-fluorophenyl)-9H-2-purinyl]-1-ethynyl}-1-cyclopentanol Hydrochloride]	–
480 nM	198 to 200 °C	CCCn1c(-c2cccc(F)c2)nc2c(N)nc(C#CC3(O)CCCC3)nc21.Cl [Example 169, 1-{2-[6-Amino-8-(3-fluorophenyl)-9-propyl-9H-2-purinyl]-1-ethynyl}-1-cyclopentanol Hydrochloride]	–
500 nM	144 to 146 °C	CCCn1c(-c2cccc(F)c2)nc2c(N)nc(C#CC3(O)CCC3)nc21.Cl [Example 170, 1-{2-[6-Amino-8-(3-fluorophenyl)-9-propyl-9H-2-purinyl]-1-ethynyl}-1-cyclobutanol Hydrochloride]	–
1010 nM	167 to 168 °C	CCCn1c(-c2cccc(F)c2)nc2c(N)nc(C#CC(C)(C)O)nc21.Cl [Example 171, 4-[6-Amino-8-(3-fluorophenyl)-9-propyl-9H-2-purinyl]-2-methyl-3-butyn-2-ol Hydrochloride]	–
270 nM	> 290 °C	Cl.Cn1c(-c2cccc(F)c2)nc2c(N)nc(/C=C/C3(O)CCCC3)nc21 [Example 208, 1-[(E)-2-[6-Amino-8-(3-fluorophenyl)-9-methyl-9H-2-purinyl]-1-ethenyl]-1-cyclopentanol Hydrochloride]	–
520 nM	–	CCn1c(-c2cccc(F)c2)nc2c(N)nc(/C=C/C(C)(C)O)nc21.Cl [Example 210, (E)-4-[6-Amino-9-ethyl-8-(3-fluorophenyl)-9H-2-purinyl]-2-methyl-3-buten-2-ol Hydrochloride]	% ratio of the blood sugar after 5 hours from the administration to the blood sugar before the administration ± standard error ([3]; Table 2-3, 10 mg/kg oral, solvent group 70.7 ± 4.6): 51.5 ± 4.6%
220 nM	181 to 184 °C	Cl.Cn1c(-c2cccc(F)c2)nc2c(N)nc(/C=C/C3(O)CCC3)nc21 [Example 215, 1-[(E)-[6-Amino-8-(3-fluorophenyl)-9-methyl-9H-2-purinyl]-1-ethenyl]-1-cyclobutanol Hydrochloride]	–
1270 nM	–	CCn1c(-c2cccc(F)c2)nc2c(N)nc(CCC(O)(CC)CC)nc21 [Example 235, 1-[6-Amino-9-ethyl-8-(3-fluorophenyl)-9-2-purinyl]-3-ethyl]-3-pentanol Hydrochloride]	–
–	–	Cn1c(-c2cccc(F)c2)nc2c(N)nc(C#CC3(O)CCCC3)nc21 [drawing 260]	Ki [1]: 19 nM
–	–	CCCn1c(=O)c2c(nc(/C=C/c3ccc(OC)c(OC)c3)n2C)n(CCC)c1=O [drawing 263]	Ki [1]: > 10000 nM
